Laboratory results published in patent US10479780B2, “Aminopyrazole derivatives” (Chugai Seiyaku Kabushiki Kaisha, priority 2015, dated 2019).
Where two headings read alike, the source gives them in different places.

Legend:
Format in all cases: biochemical
human Yes1 enzyme = biological target: T1, human Yes1 enzyme (Homo sapiens, UniProt P07947); assay: Yes1 enzyme inhibitory activity (time-resolved fluorometry, biotinylated peptide phosphorylation); conditions: read-out: YES_IC50
T1 construct: made in house
Procedure, shortened: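 Inhibition was expressed against a compound-free control to give IC50, using TR-FRET read-out (Eu-cryptate anti-pTyr antibody, streptavidin-XL665).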

human Src enzyme = biological target: T2, human Src enzyme (Homo sapiens, UniProt P12931); assay: Src enzyme inhibitory activity (time-resolved fluorometry, biotinylated peptide phosphorylation); conditions: read-out: SRC_IC50
T2 construct: purchased Carna Biosciences, Inc. 08-173
Procedure, shortened: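 Compounds were tested for blocking tyrosine phosphorylation of a biotinylated peptide substrate by recombinant human Src. Phosphorylated product was quantified by time-resolved fluorometry using europium cryptate and XL665 conjugates, and IC50 was calculated against the compound-free control.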

human Lck enzyme = biological target: T3, human Lck enzyme (Homo sapiens, UniProt P06239); assay: Lck enzyme inhibitory activity (time-resolved fluorometry, biotinylated peptide phosphorylation); conditions: read-out: LCK_IC50
T3 construct: purchased Carna Biosciences, Inc. 08-170
Procedure, shortened: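 Readout pairs a europium cryptate-labelled anti-phosphotyrosine antibody with XL665-streptavidin, measured by time-resolved fluorescence. IC50 derived from percent inhibition against untreated controls.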

[1] = biotinylated peptide phosphorylation

T1 sequence (P07947 whole entry): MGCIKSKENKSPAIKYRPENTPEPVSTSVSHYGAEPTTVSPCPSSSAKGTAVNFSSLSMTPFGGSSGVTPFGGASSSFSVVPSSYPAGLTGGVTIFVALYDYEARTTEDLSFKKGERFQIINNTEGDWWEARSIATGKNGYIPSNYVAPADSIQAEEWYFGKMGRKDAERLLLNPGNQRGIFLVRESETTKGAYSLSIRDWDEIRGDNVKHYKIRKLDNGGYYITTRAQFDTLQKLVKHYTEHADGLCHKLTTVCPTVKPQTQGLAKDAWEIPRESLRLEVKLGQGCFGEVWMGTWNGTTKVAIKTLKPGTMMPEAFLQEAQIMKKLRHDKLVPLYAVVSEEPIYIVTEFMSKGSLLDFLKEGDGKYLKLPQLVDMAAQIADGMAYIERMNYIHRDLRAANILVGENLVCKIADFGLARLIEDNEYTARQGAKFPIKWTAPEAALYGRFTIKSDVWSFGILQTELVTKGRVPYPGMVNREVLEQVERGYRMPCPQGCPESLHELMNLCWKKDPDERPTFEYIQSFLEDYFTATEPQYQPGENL
T3 sequence (P06239 whole entry): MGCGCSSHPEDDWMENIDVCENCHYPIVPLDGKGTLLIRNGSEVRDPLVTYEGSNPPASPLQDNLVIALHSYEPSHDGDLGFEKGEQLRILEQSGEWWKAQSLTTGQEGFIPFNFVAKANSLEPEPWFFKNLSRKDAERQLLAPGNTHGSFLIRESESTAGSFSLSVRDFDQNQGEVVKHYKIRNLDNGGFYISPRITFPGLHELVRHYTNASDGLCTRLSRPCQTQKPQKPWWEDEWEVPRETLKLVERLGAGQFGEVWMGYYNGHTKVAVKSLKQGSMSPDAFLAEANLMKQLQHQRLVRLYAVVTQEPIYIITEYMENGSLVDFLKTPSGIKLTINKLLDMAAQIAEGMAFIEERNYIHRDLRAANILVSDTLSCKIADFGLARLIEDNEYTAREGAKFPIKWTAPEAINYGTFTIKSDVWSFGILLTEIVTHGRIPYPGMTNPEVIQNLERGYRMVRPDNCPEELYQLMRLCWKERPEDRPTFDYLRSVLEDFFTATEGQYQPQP
T2 sequence (P12931 whole entry): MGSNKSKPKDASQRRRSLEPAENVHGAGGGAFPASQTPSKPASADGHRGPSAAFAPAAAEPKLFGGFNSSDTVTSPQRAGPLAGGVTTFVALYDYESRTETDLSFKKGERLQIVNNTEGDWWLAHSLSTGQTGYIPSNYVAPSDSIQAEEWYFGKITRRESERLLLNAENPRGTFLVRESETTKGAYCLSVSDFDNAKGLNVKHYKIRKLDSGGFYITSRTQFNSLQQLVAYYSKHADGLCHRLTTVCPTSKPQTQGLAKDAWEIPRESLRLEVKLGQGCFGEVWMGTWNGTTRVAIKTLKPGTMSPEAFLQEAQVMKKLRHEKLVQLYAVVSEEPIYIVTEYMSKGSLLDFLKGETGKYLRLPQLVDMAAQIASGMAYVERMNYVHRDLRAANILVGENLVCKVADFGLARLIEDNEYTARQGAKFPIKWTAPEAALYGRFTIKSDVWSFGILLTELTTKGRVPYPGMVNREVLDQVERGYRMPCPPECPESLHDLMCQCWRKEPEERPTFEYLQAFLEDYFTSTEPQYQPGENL

| Structure (SMILES) | IC50 (human Yes1 enzyme; [1]) | IC50 (human Src enzyme; [1]) | IC50 (human Lck enzyme; [1]) | IC50 (human Yes1 enzyme) | IC50 (human Src enzyme) | IC50 (human Lck enzyme) |
| --- | --- | --- | --- | --- | --- | --- |
| Cc1cc(Oc2ccccc2F)ncc1-n1ncc(C(=O)c2cc3cc(OCC(F)F)c(N4CCN(S(C)(=O)=O)CC4)cc3[nH]2)c1N [Example 4-23-007, [5-amino-1-[6-(2-fluorophenoxy)-4-methylpyridin-3-yl]pyrazol-4-yl]-[5-(2,2-difluoroethoxy)-6-(4-methylsulfonylpiperazin-1-yl)-1H-indol-2-yl]methanone] | 0.0013 µM | 0.016 µM | 0.0055 µM |  |  |  |
| Cc1cc(-n2ncc(C(=O)c3cc4cc(C)c(N5C(=O)NC6(CCC6)C5=O)cc4[nH]3)c2N)ccc1Oc1ccccc1F [Example 5-1-468, 7-[2-[5-amino-1-[4-(2-fluorophenoxy)-3-methylphenyl]pyrazole-4-carbonyl]-5-methyl-1H-indol-6-yl]-5,7-diazaspiro[3.4]octane-6,8-dione] | 0.011 µM | 7.8 µM | 0.43 µM |  |  |  |
| Cc1cc(Oc2ccccc2F)ccc1-n1ncc(C(=O)c2cc3cc(N4CCOCC4)c(N4CCOCC4)cc3[nH]2)c1N [Example 5-1-094, [5-amino-1-[4-(2-fluorophenoxy)-2-methylphenyl]pyrazol-4-yl]-(5,6-dimorpholin-4-yl-1H-indol-2-yl)methanone] |  |  |  | 0.0029 µM | 0.019 µM | 0.0041 µM |
| Cc1cc(Oc2cccc(F)c2F)cc(F)c1-n1ncc(C(=O)c2cc3cc(F)c(NS(=O)(=O)C4CC4)cc3[nH]2)c1N [Example 4-7-006, N-[2-[5-amino-1-[4-(2,3-difluorophenoxy)-2-fluoro-6-methylphenyl]pyrazole-4-carbonyl]-5-fluoro-1H-indol-6-yl]cyclopropanesulfonamide] | 0.007 µM | 0.38 µM | 0.16 µM |  |  |  |
| Cc1cc(-n2ncc(C(=O)c3cc4cc(OC5CCN(C(C)C)CC5)c(Br)cc4[nH]3)c2N)ccc1Oc1ccccc1F [Example 5-1-148, [5-amino-1-[4-(2-fluorophenoxy)-3-methylphenyl]pyrazol-4-yl]-[6-bromo-5-(1-propan-2-ylpiperidin-4-yl)oxy-1H-indol-2-yl] methanone] |  |  |  | 0.00057 µM | 0.18 µM | 0.047 µM |
| Cc1cc2cc(C(=O)c3cnn(-c4cnc(Oc5c(F)cccc5F)cc4C)c3N)[nH]c2cc1NS(=O)(=O)C1CCOCC1 [Example 5-1-269, N-[2-[5-amino-1-[6-(2,6-difluorophenoxy)-4-methylpyridin-3-yl]pyrazole-4-carbonyl]-5-methyl-1H-indol-6-yl]oxane-4-sulfonamide] |  |  |  | 0.002 µM | 0.11 µM | 0.023 µM |
| Cc1cc(Oc2c(F)cccc2F)ncc1-n1ncc(C(=O)c2cc3cc(OCC(F)F)c(-n4c(C)cc(=O)[nH]c4=O)cc3[nH]2)c1N [Example 4-23-029, 1-{2-{5-amino-1-[6-(2,6-difluorophenoxy)-4-methylpyridin-3-yl]pyrazole-4-carbonyl}-5-(2,2-difluoroethoxy)-1H-indol-6-yl}-6-methylpyrimidine-2,4-dione] | 0.0047 µM | 0.034 µM | 0.0061 µM |  |  |  |
| Cc1cc2cc(C(=O)c3cnn(-c4cnc(Oc5c(F)cccc5F)cc4C)c3N)[nH]c2cc1NS(=O)(=O)c1cccc(F)n1 [Example 5-1-516, N-[2-[5-amino-1-[6-(2,6-difluorophenoxy)-4-methylpyridin-3-yl]pyrazole-4-carbonyl]-5-methyl-1H-indol-6-yl]-6-fluoropyridine-2-sulfonamide] | 0.0051 µM | 0.54 µM | 0.091 µM |  |  |  |
| Cc1cccc(S(=O)(=O)Nc2cc3[nH]c(C(=O)c4cnn(-c5ccc(Oc6ccccc6F)cc5C)c4N)cc3cc2C)n1 [Example 5-1-530, N-[2-[5-amino-1-[4-(2-fluorophenoxy)-2-methylphenyl]pyrazole-4-carbonyl]-5-methyl-1H-indol-6-yl]-6-melhylpyridine-2-sulfonamide] | 0.0026 µM | 0.2 µM | 0.034 µM |  |  |  |
| Cc1cc(Oc2ccccc2F)ccc1-n1ncc(C(=O)c2cc3cc(C(C)C)c(NS(=O)(=O)CCCF)cc3[nH]2)c1N [Example 5-1-280, N-[2-[5-amino-1-[4-(2-fluorophenoxy)-2-methylphenyl]pyrazole-4-carbonyl]-5-propan-2-yl-1H-indol-6-yl]-3-fluoropropane-1-sulfonamide] |  |  |  | 0.0018 µM | 0.08 µM | 0.031 µM |
| Cc1cc(Oc2ccccc2F)ccc1-n1ncc(C(=O)c2cc3cc(OCC(F)F)c(NS(=O)(=O)C4CC4)cc3[nH]2)c1N [Example 4-24-020, N-[2-[5-amino-1-[4-(2-fluorophenoxy)-2-methylphenyl]pyrazole-4-carbonyl]-5-(2,2-difluoroethoxy)-1H-indol-6-yl]cyclopropanesulfonamide] | 0.0031 µM | 0.054 µM | 0.022 µM |  |  |  |
| Cc1cc(Oc2cccc(F)c2)ccc1-n1ncc(C(=O)c2cc3cc(F)c(C4CCN(C(C)C)CC4)cc3[nH]2)c1N [Example 5-1-009, [5-amino-1-[4-(3-fluorophenoxy)-2-methylphenyl]pyrazol-4-yl]-[5-fluoro-6-(1-propan-2-ylpiperidin-4-yl)-1H-indol-2-yl] methanone] |  |  |  | 0.0019 µM | 0.0093 µM | 0.0028 µM |
| Cc1cc2cc(C(=O)c3cnn(-c4cnc(Oc5c(F)cccc5F)cc4C)c3N)[nH]c2cc1N1C(=O)NC2(CCN(C3COC3)C2)C1=O (stereo not drawn) [Example 5-1-362, 3-[2-[5-amino-1-[6-(2,6-difluorophenoxy)-4-methylpyridin-3-yl]pyrazole-4-carbonyl]-5-methyl-1H-indol-6-yl]-7-(oxetan-3-yl)-1,3,7-triazaspiro[4.4]nonane-2,4-dione] |  |  |  | 0.002 µM | 0.029 µM | 0.0065 µM |
| Cc1cc2cc(C(=O)c3cnn(-c4ccc(Oc5ccccc5F)cc4C)c3N)[nH]c2cc1N1C(=O)NC2(CCOCC2)C1=O [Example 5-1-408, 3-[2-[5-amino-1-[4-(2-fluorophenoxy)-2-methylphenyl]pyrazole-4-carbonyl]-5-methyl-1H-indol-6-yl]-8-oxa-1,3-diazaspiro[4.5] decane-2,4-dione] | 0.0012 µM | 0.043 µM | 0.0061 µM |  |  |  |
| Cc1cc2cc(C(=O)c3cnn(-c4c(C)cc(Oc5ccccc5)cc4F)c3N)[nH]c2cc1NS(C)(=O)=O [Example 4-2-060, N-[2-[5-amino-1-(2-fluoro-6-methyl-4-phenoxyphenyl)pyrazole-4-carbonyl]-5-methyl-1H-indol-6-yl]methanesulfonamide] | 0.002 µM | 0.058 µM | 0.015 µM |  |  |  |
| Cc1cc2cc(C(=O)c3cnn(-c4ccc(Oc5c(F)cccc5Cl)cc4C)c3N)[nH]c2cc1NS(C)(=O)=O [Example 5-1-096, N-[2-[5-amino-1-[4-(2-chloro-6-fluorophenoxy)-2-methylphenyl]pyrazole-4-carbonyl]-5-methyl-1H-indol-6-yl] methanesulfonamide] |  |  |  | 0.0017 µM | 0.033 µM | 0.0027 µM |
| Cc1cc(Oc2ccccc2F)ccc1-n1ncc(C(=O)c2cc3cc(F)c(N4C(=O)N[C@@H](CO)C4=O)cc3[nH]2)c1N [Example 5-1-446, (5S)-3-[2-[5-amino-1-[4-(2-fluorophenoxy)-2-methylphenyl]pyrazole-4-carbonyl]-5-fluoro-1H-indol-6-yl]-5-(hydroxymethyl)imidazolidine-2,4-dione] | 0.00044 µM | 0.013 µM | 0.0021 µM |  |  |  |
| COc1cc2cc(C(=O)c3cnn(-c4cnc(Oc5ccccc5F)cc4C)c3N)[nH]c2cc1Br [Example 5-1-145, [5-amino-1-[6-(2-fluorophenoxy)-4-methylpyridin-3-yl]pyrazol-4-yl]-(6-bromo-5-methoxy-1H-indol-2-yl)methanone] |  |  |  | 0.0016 µM | 0.016 µM | 0.0082 µM |
| Cc1cc(Oc2ccccc2F)ccc1-n1ncc(C(=O)c2cc3cc(F)c(NS(=O)(=O)CC(=O)N4CCOCC4)cc3[nH]2)c1N [Example 4-10-004, N-[2-[5-amino-1-[4-(2-fluorophenoxy)-2-methylphenyl]pyrazole-4-carbonyl]-5-fluoro-1H-indol-6-yl]-2-morpholin-4-yl-2-oxoethanesulfonamide] | 0.00053 µM | 0.012 µM | 0.0083 µM |  |  |  |
| Cc1cc(Oc2ccccc2F)ccc1-n1ncc(C(=O)c2cc3cc(OC(F)F)c(NS(=O)(=O)C4CC4)cc3[nH]2)c1N [Example 4-24-001, N-[2-[5-amino-1-[4-(2-fluorophenoxy)-2-methylphenyl]pyrazole-4-carbonyl]-5-(difluoromethoxy)-1H-indol-6-yl]cyclopropanesulfonamide] | 0.0036 µM | 0.11 µM | 0.036 µM |  |  |  |
| Cc1cc(Oc2c(F)cccc2F)ncc1-n1ncc(C(=O)c2cc3cc(N4CCOCC4)c(NS(C)(=O)=O)cc3[nH]2)c1N [Example 4-24-018, N-[2-[5-amino-1-[6-(2,6-difluorophenoxy)-4-methylpyridin-3-yl]pyrazole-4-carbonyl]-5-morpholin-4-yl-1H-indol-6-yl]methanesulfonamide] | 0.0026 µM | 0.091 µM | 0.027 µM |  |  |  |
| Cc1cc(Oc2c(F)cccc2F)ncc1-n1ncc(C(=O)c2cc3cc(OCC(F)F)c(-c4cccs4)cc3[nH]2)c1N [Example 5-1-257, [5-amino-1-[6-(2,6-difluorophenoxy)-4-methylpyridin-3-yl]pyrazol-4-yl]-[5-(2,2-difluoroethoxy)-6-thiophen-2-yl-1H-indol-2-yl] methanone] |  |  |  | 0.04 µM | 0.25 µM | 0.095 µM |
